The values below come from article PMC5291098, “Molecular mutagenesis of ppGpp: turning a RelA activator into an inhibitor” (Scientific Reports, 2017).

Where “and” joins values, the source holds several entries; their conditions need not be identical. Equal values may be shown once. Entries after “also recorded” stand apart in the source; their conditions may differ. Read-outs that look alike come from different tables or passages of the source.

Broadly, the stoichiometry N is the number of molecules, sites or subunits per partner or assembly.

Test [1] addresses T1, E. coli RelA (Escherichia coli, UniProt P0AG20).
T1 construct: made in house
Further details: method as in PMID 20483622. To be noted: read-out: IC50 / concentration for 50% inhibition of E. coli RelA; in the test tube; cited from earlier work.

For test [2], the target named is T1, E. coli RelA. Put plainly: Inhibition of [3H]GDP to [3H]ppGpp conversion by E. coli RelA activated by vacant 70S ribosomes and 100 μM ppGpp. To be noted: for IC50: 30 nM RelA, 0.5 μM vacant 70S, 100 μM ppGpp; for nHill (Hill coefficient of the titration fit): Supplementary Table 1, 4-parameter logistic model. Format: biochemical. Here is the method: For the initial characterization of compounds, we followed the inhibition of [^3H] GDP conversion to [^3H] ppGpp catalyzed by E. coli RelA in a simplified system in which RelA’s activity was induced by vacant 70S ribosomes and 100 μM of ppGpp[15]. Unlabeled ppGpp was added to reaction mixtures in order to linearize the kinetics of [^3H] ppGpp synthesis due to an activating effect on the RelA enzyme. We used a targeted library of 69 nucleotides belonging to several structural classes: ‘true’ ppGpp analogues; Relacin and its derivatives; pyrrolidine, azetidine, piperidine and acyclic phosphonates. Chemical structures of tested compounds and titrations in the RelA:70S:ppGpp system are presented in Supplementary Table 1.
(§1) Detailed description of experimental procedures can be found in Supplementary Text. Biochemical assays utilize in vitro translation[58] and stringent response[15] systems from E. coli purified components. Experiments were performed in HEPES:Polymix[58] buffer with either 5 (for enzymatically assembled initiation complexes) or 15 mM (for vacant 70 S, as well as non-enzymatically assembled programmed ribosomes) Mg^2+. Expression and purification of E. faecalis RelQ was performed as per Gaca (2015) and colleagues. GTPase and ppGpp synthesis were followed using TLC separation and radiochemical detection of ^3H-labelled nucleotides. Multiple round in vitro transcription assays were performed as per Bernardo et al.[49] with minor modifications. Inhibition efficiency (IC50) was calculated using 4-parameter logistic model (Hill equation) as per Sebaugh[60].
(§2) Thin layer chromatography (TLC) analysis of nucleotide mixtures
(§3) Both EF-G GTPase reaction and ppGpp synthesis by RelA were followed by TLC analysis followed by scintillation counting according to Mechold and colleagues, with modifications1. Time points from the reaction mixtures (5 μl, see below for details) were quenched by addition 4 μl 70% formic acid supplemented with a cold nucleotide standard used for UV-shadowing (10 mM GDP and 10 mM GTP) and spotted on PEI-TLC plates (Macherey-Nagel). TLC was run in buffer, plates dried, cut into sections guided by UV-shadowing and 3H radioactivity was quantified by scintillation counting in Optisafe-3 (Fisher) scintillation cocktail on Perkin Elmer Tricarb 2810TR counter. Conversion of substrate to product was quantified as described in Shyp et al. (2012)2.
Enzymatic assays with E. coli RelA
Screening: all experiments were performed in HEPES:Polymix, Mg2+ of 5 mM, 37 […]
μM ppGpp was pre-incubated at 37° C for 2 min and then reaction started by addition of 1 mM ATP, time points (5 μl) taken, quenched with formic acid and analyzed by TLC. Inhibition efficiency (IC50) was calculated using 4-parameter logistic model (Hill equation) as per Sebaugh (2011)3. […]

For test [3], the system named is Bacillus subtilis. Further details: method as in PMID 20483622. The conditions noted are these: mM-range concentrations; cited from earlier work.
Test [4] concerns T2, E. coli EF-G.
T2 construct: made in house
Type of test: biochemical. Here is the method:
as §2
as §3, with “(2012)2. […]” for “(2012)2.”
GTPase assays with E. coli EF-G
The reaction mixture contained 0.5 μM 70S, 0.1 μM EF-G, in HEPES:Polymix (25 mM Hepes 7.5/ 1 mM DTT / 5 mM Mg2+) pre-incubated for 2 minutes at 37°C prior to addition of 300 μM [3H]GTP substrate (Hartman), after which time points (5 μl) taken, quenched with formic acid and analyzed by TLC (see above). […]

The subject of test [5] is T3, E. coli σ70-RNAP holoenzyme.
T3 construct: purchased Epicentre
In words: Multiple round in vitro transcription by σ70-RNAP (rrnB P1 and rna1 promoters). Type of test: biochemical, Escherichia coli. To be noted: concentrations up to 5 mM; regardless of presence or absence of 2 μM DksA and 100 μM ppGpp.
Method: Next, we tested their effects on RNAP. […] We used multiple round in vitro transcription driven from the rrnB P1, a well-characterized ppGpp/DksA inhibited promoter, as described earlier[49]. The assays were performed in the presence and absence of 2 μM DksA and/or 100 μM ppGpp (Fig. 5a).
Effect of inhibitors on rrnB P1 (−66 to +50) promoter transcription by RNAP. Graphs depicting inhibitor (0, 0.025, 0.05, 0.15, 0.4 and 0.6 mM) titrations performed at 30 °C in T-buffer with 0.5 nM template (σ^70-rrnB P1 promoter (pRLG6214)) and 5 nM σ^70-RNAP, in presence or absence of 100 μM ppGpp and/or 2 μM DksA. Error bars represent standard deviations of linear regression estimates, each experiment was performed at least three times.
The assays were performed as per Bernardo et al. (2006)4 with minor modifications. Reactions were carried out in T-buffer (50 mM Tris-HCl pH 7.5, 100 mM NaCl, 10 mM MgCl2, 1 mM dithiothreitol, 0.1 mM EDTA and 0.275 mg of BSA per ml) at 30°C. Inhibitors were titrated to final concentrations of 0, 0.025, 0.05, 0.15, 0.4 and 0.6 mM. E. coli s 70-RNAP holoenzyme (Epicentre, final concentration 5 nM) and template plasmid DNA containing s70-rrnB P1 promoter, (pRLG6214, final concentration 0.5 nM) was used for all experiments. Before initiation of transcription, E. coli s70-RNAP holoenzyme and T buffer were incubated at 30°C for 5 min. Above mix was added to predispensed mixture of inhibitor and the template plasmid DNA containing s70-rrnB P1 promoter (pRLG6214), incubated for further 20 min to initiate open complex formation. 2.5 µl of a mixture of ATP (ﬁnal concentration 0.5 mM), GTP and CTP (ﬁnal concentration 0.2 mM each), UTP (ﬁnal concentration 0.08 mM) and [a-32P]-UTP (5 µCi at > 3000 Ci/mmol, PerkinElmer) was added to initiate transcription by RNAP. After 7 min, 1 µl heparin (0.125 mg/ml ﬁnal concentration) was added to the reaction mixture to prevent re-initiation and further incubated for 5 min to allow completion of initiated transcripts. Transcription was terminated by addition of formamide loading buffer and samples were electrophoresed on a 7M urea-5% polyacrylamide gel and quantified by phosphorimaging.

Test [6] deals with T4, E. faecalis SAS RelQ (RelQEf) (Enterococcus faecalis, UniProt Q830U9). To be noted: found earlier; cited from earlier work.
The subject of test [7] is ΔywaCΔyjbM B. subtilis. Put plainly: Growth of ΔywaCΔyjbM B. subtilis in valine drop-out S7 medium (functional test for Rel inhibition). To be noted: up to 1 mM (0 to 1000 µM). Type of test: cell-based, Bacillus subtilis. The text has this:
Finally, we tested the three of our most promising inhibitors (DR-4250, DR-M014 and DR-5163) for RSH inhibition in bacterial culture. For this we used the Gram-positive bacterium B. subtilis due to its better uptake of compounds as compared to Gram-negative species such as E. coli[50]. The functional test for RSH inhibition relied on the auxotrophy of (p)ppGpp-deficient (ppGpp^0) B. subtilis for methionine and branched-chain amino acids valine, leucine and isoleucine. The B. subtilis RSH repertoire consists of one multi-domain ribosome-associated enzyme Rel and two SAS, YwaC and YjbM[3][52]. Because the SAS RelQEf is refractory to inhibition by our test compounds (Supplementary Figure 2), we used a B. subtilis strain lacking SASs (ΔywaCΔyjbM), in which the sole source of (p)ppGpp is Rel[53]. Defined S7 medium[54] lacking valine supports the growth of ΔywaCΔyjbM B. subtilis, but not the ppGpp^0 stain (Supplementary Figure 5). […] This is indicative of the test compounds failing to inhibit Rel and thereby rendering the strain phenotypically ppGpp^0 (Supplementary Figure 5). A lack of cellular uptake is a likely explanation. […]
Growth assays with Bacillus subtilis BSB1 wild type strain
SAS deletion and ppGpp0 strain of B. subtilis5 were grown in S7 liquid medium6 except for amino acid requirements, which were met as described elsewhere 7. On 96-well plate, 90 µl of B subtilis starter culture was mixed with 10 µL of compound dilution (in 5 mM Tris pH 7.2) so that final OD600 was 0.025 (l = 1 cm).
Following incubation was without shaking at 37°C and growth was monitored with Tecan Infinite M200 at OD600 (raw OD600 values are reported). B. subtilis starter culture was prepared as follows. Late exponential phase cells in S7, with full set of amino acids, were diluted ≈10-fold in S7 lacking either valine or lysine so that, after addition of 8% DMSO, OD600 was 0.25. Next, cell suspensions were aliquoted, frozen in liquid nitrogen, and stored at -80°C. Just before the experiment, cells were thawed on ice and appropriate amount of media was […]
DywaC DyjbM BSB1 B. subtilis ppGpp0. BSB1 B. subtilis wild type strain as grown on S7 synthetic media8 drop-out media lacking valine which abolishes the growth of ppGpp0 (Drel DywaC DyjbM) strain due to valine auxotrophy (dashed line). […]
inhibit the Rel and render the strain ppGpp0.

The target of test [8] is T4, E. faecalis SAS RelQ (RelQEf). In words: Inhibition of E. faecalis SAS RelQ ppGpp synthesis. Type of test: biochemical. The conditions noted are these: concentrations up to 1 mM.
From the text: In E. coli, ppGpp is synthesized by the multi-domain RSHs RelA and SpoT, however, numerous single-domain RSHs – Small Alarmone Synthetases (SAS) – are widely distributed across bacterial taxa[3]. […] Therefore we tested the effects of DR-4250, DR-M014 and DR-5163 on RelQEf activity (Supplementary Figure 2).
as §1
RelQ activity0.4 RelQ activity0.4 RelQ activity0.4
Supplementary Figure 2 | Inhibition of E. faecalis SAS RelQ by DR-4250, DR-
M014 and DR-5163 is inefficient. The reaction mixture contains 0.25 µM RelQEf,
300 µM [3H] GDP, 0.5 mg/ml BSA, 100 µM ppGpp, 1 mM ATP in Hepes:Polymix at […]

In test [9] the test system is transcription or translation in E. coli reconstituted systems. Set-up: method as in PMID 7047215. To be noted: cited from earlier work.
In test [10] the target is 70S initiation complexes programmed with mRNA(MF) (E. coli) (UniProt P0AG67). In words: co-sedimentation; spin-down assay: 2 uM RelA, 1 uM 70S initiation complexes programmed with mRNA(MF), with or without 3 uM deacylated tRNA-Phe and 500 uM DR-4250 or DR-M014; 37 C for 15 min; 30% sucrose cushion, 70,000 r.p.m., 25 min, 12 C; pellets on 10% SDS-PAGE; the stoichiometry is told for the sample with A-site deacylated tRNA-Phe.

Setting [11] is: 0.3 mM [3H]GDP, 1 mM ATP, read-out: IC50.

T4 sequence (Q830U9 entry or part of it): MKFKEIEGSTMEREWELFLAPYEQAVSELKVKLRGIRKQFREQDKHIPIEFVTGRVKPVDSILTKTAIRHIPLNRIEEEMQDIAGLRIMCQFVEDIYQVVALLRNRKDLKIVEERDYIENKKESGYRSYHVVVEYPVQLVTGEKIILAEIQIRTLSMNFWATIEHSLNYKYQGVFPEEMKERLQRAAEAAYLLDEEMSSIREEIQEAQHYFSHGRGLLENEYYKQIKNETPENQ
T1 sequence (P0AG20 whole entry): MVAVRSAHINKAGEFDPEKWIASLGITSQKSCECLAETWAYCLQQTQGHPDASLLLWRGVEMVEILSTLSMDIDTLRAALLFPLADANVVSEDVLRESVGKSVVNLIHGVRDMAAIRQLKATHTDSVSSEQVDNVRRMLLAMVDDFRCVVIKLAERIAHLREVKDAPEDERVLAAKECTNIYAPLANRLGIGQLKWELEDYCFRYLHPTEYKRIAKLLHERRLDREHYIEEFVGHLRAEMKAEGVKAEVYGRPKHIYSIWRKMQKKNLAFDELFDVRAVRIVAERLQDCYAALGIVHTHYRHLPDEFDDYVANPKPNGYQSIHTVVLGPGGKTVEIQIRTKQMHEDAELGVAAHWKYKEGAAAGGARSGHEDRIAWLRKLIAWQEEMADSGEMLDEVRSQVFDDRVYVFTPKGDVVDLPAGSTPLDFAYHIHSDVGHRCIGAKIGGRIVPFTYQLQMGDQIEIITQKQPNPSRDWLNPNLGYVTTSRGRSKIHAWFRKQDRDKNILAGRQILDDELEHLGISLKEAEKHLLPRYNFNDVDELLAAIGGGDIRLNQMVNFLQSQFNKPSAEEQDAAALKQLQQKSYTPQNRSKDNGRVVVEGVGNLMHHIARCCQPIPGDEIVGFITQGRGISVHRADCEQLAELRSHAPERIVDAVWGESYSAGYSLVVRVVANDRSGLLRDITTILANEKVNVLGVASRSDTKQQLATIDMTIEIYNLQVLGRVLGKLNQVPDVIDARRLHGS
Escherichia coli RelA, sequence (P0AG20 whole entry): as above

With `Nc1nc2c(ncn2[C@H]2C[C@H](OP(=O)(O)CP(=O)(O)O)[C@@H](COP(=O)(O)CP(=O)(O)O)O2)c(=O)[nH]1` [(10), 2′-deoxyguanosine-3′-5′-di(methylene bisphosphonate)], the IC50 in [1] is ~1000 µM and 1000 µM.
Consider `CC(C)C(=O)Nc1nc2c(ncn2[C@H]2C[C@H](OC(=O)NCC(=O)NCC(=O)O)[C@@H](COC(=O)NCC(=O)NCC(=O)O)O2)c(=O)[nH]1` [Relacin, reference compound], for which, in [2] (setting [11]), the IC50 was 0.84 ± 0.2 mM. For the same compound, the “nHill (Hill coefficient of the titration fit)” value (“nHill” below) in test [2] is recorded as 1.8 ± 0.001. Moreover, the “Biological effect on Bacillus subtilis (in words)” value in test [3] was “has a biological effect”. Moreover, the “Inhibitory effect on EF-G GTPase activity (in words)” value in test [4] (up to 5 mM) was “no inhibitory effect”. For the same compound, the “Effect on rrnB P1 transcription by RNAP (in words)” value in test [5] is “mild inhibitory effect”. The “Sensitivity of RelQEf to Relacin (in words)” value in [6] is recorded as “virtually insensitive”.
As to `Nc1nc2c(ncn2CCNC(=O)P(=O)(O)O)c(=O)[nH]1` [DR-5163], the IC50 in test [2] (setting [11]) worked out at 0.245 ± 0.039 mM; in test [2] (5 mM Mg2+, 37 °C, no unit beside the value, titration axis in mM, read-out: IC50 (Supplementary Table 1, example titration)) it was 0.25 ± 0.05 mM. The “nHill” value in test [2] was found to be 1.3 ± 0.26. Further, in test [7], the “Effect on growth of ΔywaCΔyjbM B. subtilis (in words)” value was “did not affect bacterial growth; also recorded: does not affect the growth”. The “Inhibitory effect on EF-G GTPase activity (in words)” value in test [4] (up to 1 mM) was “no inhibitory effect”. Besides, the “Effect on RelQEf activity (in words)” value in [8] is “inefficient; also recorded: almost inactive”.
For the compound `Nc1ncnc2c1ncn2C1OC(COP(=O)(O)OP(=O)(O)O)C(OP(=O)(O)OP(=O)(O)O)C1O` (stereo not shown) [ppApp], the IC50 in test [2] (setting [11]) stood at 0.0245 ± 0.0035 mM. Further, the “nHill” value in [2] amounted to 0.7 ± 0.1. Moreover, in test [2] (ppGpp up to 100 μM, ppApp 50 µM-1 mM, thio-ppGpp 100 µM (Supplementary Figure 1)), the “Activation of RelA's synthetic activity (in words)” value was “do not activate; also recorded: neither ppApp nor 6-thio-ppGpp activate”. For the same compound, the “Inhibitory effect on EF-G GTPase activity (in words)” value in test [4] (up to 100 μM) is “no inhibitory effect”. In addition, the “Inhibitory effect on transcription or translation (in words)” value in test [9] was “does not have a pronounced inhibitory effect”.
“Escherichia coli RelA (from UniProt P0AG20 1-744) (enzyme)” showed a stoichiometry N in [10] of 1.
